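Each compound was tested at five concentrations against cells in 96-well plates for 48 hours. TGI denotes the concentration required for complete inhibition of growth.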

Some test systems named below: SF-295 CNS; NCI-H460 lung; HCC-2998 colon; CAKI-1 renal; HT29 colon; M14 melanoma; DU-145 prostate; SR leukemia; MCF7 breast; PC-3 prostate.
Experiment in all cases: inhibition of tumour cell growth, NCI panel, 48 h

As to `NC(=O)c1nnc2c(F)cccc2c1N`, the TGI in the assay on SF-295 CNS, in the assay with NCI-H460 lung, in the assay with HCC-2998 colon, in the assay with CAKI-1 renal, in the assay with HT29 colon and in the assay on M14 melanoma was more than 100 µM each time. Also, the TGI in the assay on DU-145 prostate, in the assay on SR leukemia, in the assay with MCF7 breast and in the assay with PC-3 prostate was more than 100 µM each time.

For the compound `Cn1c(-c2cccs2)cc(-c2ccsc2)c1-c1ccsc1`, the TGI in the assay on SF-295 CNS, with NCI-H460 lung, in the assay with HCC-2998 colon, with CAKI-1 renal, with HT29 colon and with M14 melanoma was more than 100 µM in each case. The TGI in the assay on DU-145 prostate, in the assay on SR leukemia, in the assay with MCF7 breast and with PC-3 prostate was more than 100 µM throughout.

As for `C(=N\Nc1nnc(-c2nnc(N/N=C/c3ccccc3)o2)o1)/c1ccccc1`, the TGI in the assay with SF-295 CNS, in the assay on NCI-H460 lung, with HCC-2998 colon, in the assay with CAKI-1 renal, in the assay on HT29 colon and with M14 melanoma was more than 10 µM each time. The TGI in the assay on DU-145 prostate, with SR leukemia, with MCF7 breast and in the assay on PC-3 prostate was more than 10 µM each time.

Take `Oc1cccc(-c2cn3cc(Cl)ccc3n2)c1`: the TGI in the assay with SF-295 CNS, in the assay with NCI-H460 lung, with HCC-2998 colon, in the assay on CAKI-1 renal, in the assay with HT29 colon and in the assay with M14 melanoma was more than 100 µM in each case. Moreover, the TGI in the assay with DU-145 prostate, with SR leukemia, with MCF7 breast and in the assay with PC-3 prostate was more than 100 µM in each case.

For the compound `O=C1/C(=C/Cc2ccco2)N=C(c2ccccc2)N1c1nc2c(Cl)cc(Cl)cc2s1`, the TGI in the assay on SF-295 CNS is more than 100 µM; with NCI-H460 lung, more than 100 µM; in the assay with HCC-2998 colon, more than 100 µM; in the assay on CAKI-1 renal, more than 100 µM; with HT29 colon, 98.2 µM; with M14 melanoma, more than 100 µM. Further, the TGI is more than 100 µM with DU-145 prostate, 38.7 µM in the assay with SR leukemia, more than 100 µM in the assay with MCF7 breast and 74.8 µM in the assay with PC-3 prostate.

Take `C/C(=N\Nc1nc2ccccc2n1C)c1ccncn1`: the TGI was more than 100 µM in the assay with SF-295 CNS; more than 100 µM in the assay with NCI-H460 lung; more than 100 µM in the assay on HCC-2998 colon; more than 75 µM in the assay on CAKI-1 renal; 30.3 µM in the assay on HT29 colon; 0.44 µM with M14 melanoma. The TGI with DU-145 prostate is more than 44.7 µM; in the assay on SR leukemia, more than 100 µM; with MCF7 breast, more than 100 µM; in the assay with PC-3 prostate, more than 100 µM.

In the case of `N#CC(NNC(=O)c1c(Cl)c(Cl)c(Cl)c(Cl)c1-c1nc2ccc(C(=O)c3ccccc3)cc2[nH]1)c1cccc(Oc2ccccc2)c1` (stereo unspecified), the TGI is 96.6 µM in the assay on SF-295 CNS; more than 100 µM in the assay on CAKI-1 renal; more than 100 µM with HT29 colon; 83.9 µM in the assay on M14 melanoma; more than 100 µM in the assay on DU-145 prostate; 54.4 µM in the assay with SR leukemia. Besides, the TGI with MCF7 breast is 65.6 µM; in the assay on PC-3 prostate it was 54 µM.

On to `CC1CC2OC(=N)C1(C#N)C2(C#N)C#N` (stereo unspecified), for which the TGI in the assay with SF-295 CNS is more than 100 µM; in the assay on HCC-2998 colon, 34.4 µM; in the assay on CAKI-1 renal, 20.5 µM; in the assay on HT29 colon, 47.7 µM; with M14 melanoma, more than 100 µM; with DU-145 prostate, more than 100 µM. For the same compound, the TGI is more than 100 µM in the assay with SR leukemia, more than 100 µM with MCF7 breast and 71.7 µM in the assay with PC-3 prostate.

For `CCOC(=O)CCC1(C(=O)O[C@@H]2C[C@H](C)CC[C@H]2C(C)C)CCCCC1=O` (stereo partly specified), the TGI in the assay on SF-295 CNS, in the assay on NCI-H460 lung, with CAKI-1 renal, in the assay with HT29 colon, in the assay on M14 melanoma and with DU-145 prostate was more than 100 µM each time. Moreover, the TGI in the assay with SR leukemia, in the assay on MCF7 breast and with PC-3 prostate was more than 100 µM each time.

For `CCOC(=O)C1=C(C)N(c2ccc(Cl)cc2)C2(O)C=CC(=O)C3C(=O)N(c4ccccc4)C(=O)C132` (stereo unspecified), the TGI in the assay with SF-295 CNS is 5.25 µM; in the assay on NCI-H460 lung it was 4.97 µM; in the assay on CAKI-1 renal it was 4.72 µM; in the assay on HT29 colon, 3.18 µM; in the assay with M14 melanoma it was 3.29 µM; in the assay on DU-145 prostate, 4.65 µM. For the same compound, the TGI came out at 1.14 µM in the assay on SR leukemia, 4.06 µM in the assay with MCF7 breast and 3.49 µM in the assay on PC-3 prostate.

As to `CC1C/C(=C\c2ccc(O)c(O)c2)C(=O)/C(=C/c2ccc(O)c(O)c2)C1` (stereo unspecified), the TGI in the assay with SF-295 CNS is 27.7 µM; in the assay on NCI-H460 lung, 32.2 µM; in the assay with HCC-2998 colon, 35.1 µM; with CAKI-1 renal it was 18.1 µM; in the assay with HT29 colon, 34.2 µM; with DU-145 prostate, 20.8 µM. Besides, the TGI with SR leukemia was determined as 14 µM; with MCF7 breast, 14.8 µM; in the assay on PC-3 prostate, 29.9 µM.

For the compound `CCN(CC)CCC1(C(=O)OC)SCCc2ccc(C)cc21` (stereo unspecified), the TGI in the assay with SF-295 CNS, in the assay on NCI-H460 lung, with HCC-2998 colon, in the assay with CAKI-1 renal, in the assay on M14 melanoma and with DU-145 prostate was more than 100 µM in each case. Besides, the TGI with SR leukemia, in the assay with MCF7 breast and in the assay on PC-3 prostate was more than 100 µM each time.

Turning to `COc1nc2ncc([C@@H](O)[C@H](O)CO)nc2c(=O)[nH]1`, the TGI in the assay on SF-295 CNS, with NCI-H460 lung, in the assay on CAKI-1 renal, with HT29 colon, in the assay with M14 melanoma and in the assay on DU-145 prostate was more than 100 µM in each case. The TGI in the assay on SR leukemia, in the assay on MCF7 breast and with PC-3 prostate was more than 100 µM each time.

On to `N#Cc1c(NC(=S)Nc2ccccc2)sc2c1CCCC2`, for which the TGI with SF-295 CNS, with NCI-H460 lung, in the assay on HCC-2998 colon, with CAKI-1 renal, in the assay with HT29 colon and with DU-145 prostate was more than 100 µM throughout. Moreover, the TGI in the assay on SR leukemia, in the assay on MCF7 breast and in the assay on PC-3 prostate was more than 100 µM each time.

The values are drawn from PubChem BioAssay (NCI).
